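Tested at 5 concentrations; 48 h exposure; 96-well plates; endpoints linearly interpolated, else capped at highest concentration. Definition used: TGI = concentration required for complete inhibition of growth.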
Assays:
Assay in all cases: DTP human tumour cell line panel, 48 h
[1] = test system: 786-0 renal
[2] = test system: A498 renal
[3] = test system: ACHN renal
[4] = test system: CAKI-1 renal
[5] = test system: CCRF-CEM leukemia
[6] = test system: COLO 205 colon
[7] = test system: DLD-1 colon
[8] = test system: DMS 273 small cell lung
[9] = test system: EKVX NSCLC
[10] = test system: HCC-2998 colon
[11] = test system: HCT-116 colon
[12] = test system: HCT-15 colon
[13] = test system: HL-60(TB) leukemia
[14] = test system: HOP-18 NSCLC
[15] = test system: HOP-62 NSCLC
[16] = test system: HOP-92 NSCLC
[17] = test system: HT29 colon
[18] = test system: IGROV1 ovarian
[19] = test system: K-562 leukemia
[20] = test system: KM12 colon
[21] = test system: KM20L2 colon
[22] = test system: LXFL 529 NSCLC
[23] = test system: M14 melanoma
[24] = test system: M19-MEL melanoma
[25] = test system: MALME-3M melanoma
[26] = test system: MOLT-4 leukemia
[27] = test system: NCI-H226 lung
[28] = test system: NCI-H23 lung
[29] = test system: NCI-H460 lung
[30] = test system: NCI-H522 lung
[31] = test system: OVCAR-3 ovarian
[32] = test system: OVCAR-4 ovarian
[33] = test system: OVCAR-5 ovarian
[34] = test system: OVCAR-8 ovarian
[35] = test system: RPMI-8226 leukemia
[36] = test system: SF-268 CNS
[37] = test system: SF-295 CNS
[38] = test system: SF-539 CNS
[39] = test system: SK-MEL-28 melanoma
[40] = test system: SK-MEL-5 melanoma
[41] = test system: SK-OV-3 ovarian
[42] = test system: SN12C renal
[43] = test system: SNB-19 CNS
[44] = test system: SNB-75 CNS
[45] = test system: SNB-78 CNS
[46] = test system: SW-620 colon
[47] = test system: TK-10 renal
[48] = test system: U251 CNS
[49] = test system: UACC-257 melanoma
[50] = test system: UACC-62 melanoma
[51] = test system: UO-31 renal
[52] = test system: A549 NSCLC
[53] = test system: DMS 114 small cell lung
[54] = test system: LOX IMVI melanoma
[55] = test system: SK-MEL-2 melanoma
[56] = test system: SR leukemia
[57] = test system: RXF 393 renal
[58] = test system: XF 498 CNS

SMILES: CCc1cccc(C)c1NC(=O)CCc1n[nH]c(=S)o1
- TGI [1]: > 100 µM
- TGI [2]: > 100 µM
- TGI [3]: > 100 µM
- TGI [4]: > 100 µM
- TGI [5]: > 100 µM
- TGI [6]: > 100 µM
- TGI [7]: > 100 µM
- TGI [8]: > 100 µM
- TGI [9]: > 100 µM
- TGI [10]: > 100 µM
- TGI [11]: 31.1 µM
- TGI [12]: > 100 µM
- TGI [13]: > 100 µM
- TGI [14]: > 100 µM
- TGI [15]: > 100 µM
- TGI [16]: > 100 µM
- TGI [17]: > 100 µM
- TGI [18]: > 100 µM
- TGI [19]: > 100 µM
- TGI [20]: > 100 µM
- TGI [21]: > 100 µM
- TGI [22]: > 100 µM
- TGI [23]: > 100 µM
- TGI [24]: > 100 µM
- TGI [25]: > 100 µM
- TGI [26]: > 100 µM
- TGI [27]: > 100 µM
- TGI [28]: > 100 µM
- TGI [29]: > 100 µM
- TGI [30]: > 100 µM
- TGI [31]: > 100 µM
- TGI [32]: > 100 µM
- TGI [33]: > 100 µM
- TGI [34]: > 100 µM
- TGI [35]: 58.2 µM
- TGI [36]: > 100 µM
- TGI [37]: > 100 µM
- TGI [38]: > 100 µM
- TGI [39]: > 100 µM
- TGI [40]: > 100 µM
- TGI [41]: > 100 µM
- TGI [42]: > 100 µM
- TGI [43]: > 100 µM
- TGI [44]: > 100 µM
- TGI [45]: > 100 µM
- TGI [46]: 28 µM
- TGI [47]: > 100 µM
- TGI [48]: > 100 µM
- TGI [49]: > 100 µM
- TGI [50]: > 100 µM
- TGI [51]: > 100 µM

SMILES: O=C(Nc1c(O)[nH]c(=S)[nH]c1=O)c1ccco1
- TGI [1]: > 100 µM
- TGI [2]: > 100 µM
- TGI [52]: > 100 µM
- TGI [3]: > 100 µM
- TGI [4]: > 100 µM
- TGI [5]: > 100 µM
- TGI [6]: > 100 µM
- TGI [53]: > 100 µM
- TGI [11]: > 100 µM
- TGI [12]: > 100 µM
- TGI [13]: > 100 µM
- TGI [14]: > 100 µM
- TGI [15]: > 100 µM
- TGI [16]: > 100 µM
- TGI [17]: > 100 µM
- TGI [18]: > 100 µM
- TGI [19]: > 100 µM
- TGI [20]: > 100 µM
- TGI [21]: > 100 µM
- TGI [54]: > 100 µM
- TGI [22]: > 100 µM
- TGI [23]: > 100 µM
- TGI [24]: > 100 µM
- TGI [25]: > 100 µM
- TGI [26]: > 100 µM
- TGI [27]: > 100 µM
- TGI [28]: > 100 µM
- TGI [29]: > 100 µM
- TGI [30]: > 100 µM
- TGI [31]: > 100 µM
- TGI [32]: > 100 µM
- TGI [33]: > 100 µM
- TGI [34]: > 100 µM
- TGI [35]: > 100 µM
- TGI [36]: > 100 µM
- TGI [37]: > 100 µM
- TGI [38]: > 100 µM
- TGI [55]: > 100 µM
- TGI [39]: > 100 µM
- TGI [40]: > 100 µM
- TGI [41]: > 100 µM
- TGI [42]: > 100 µM
- TGI [43]: > 100 µM
- TGI [44]: > 100 µM
- TGI [45]: > 100 µM
- TGI [56]: > 100 µM
- TGI [46]: > 100 µM
- TGI [47]: > 100 µM
- TGI [48]: > 100 µM
- TGI [49]: > 100 µM
- TGI [50]: > 100 µM
- TGI [51]: > 100 µM

SMILES: COC1CC(Br)(C#N)C1 (centres undefined)
- TGI [1]: > 100 µM
- TGI [52]: > 100 µM
- TGI [4]: > 100 µM
- TGI [6]: > 100 µM
- TGI [7]: > 100 µM
- TGI [53]: > 100 µM
- TGI [9]: > 100 µM
- TGI [10]: > 100 µM
- TGI [11]: > 100 µM
- TGI [12]: > 100 µM
- TGI [13]: > 100 µM
- TGI [14]: > 100 µM
- TGI [15]: > 100 µM
- TGI [16]: > 100 µM
- TGI [17]: > 100 µM
- TGI [18]: > 100 µM
- TGI [19]: > 100 µM
- TGI [20]: > 100 µM
- TGI [21]: > 100 µM
- TGI [23]: > 100 µM
- TGI [24]: > 100 µM
- TGI [25]: > 100 µM
- TGI [26]: > 100 µM
- TGI [28]: > 100 µM
- TGI [31]: > 100 µM
- TGI [32]: > 100 µM
- TGI [33]: > 100 µM
- TGI [34]: > 100 µM
- TGI [35]: > 100 µM
- TGI [57]: > 100 µM
- TGI [36]: > 100 µM
- TGI [37]: > 100 µM
- TGI [38]: > 100 µM
- TGI [55]: > 100 µM
- TGI [39]: > 100 µM
- TGI [40]: > 100 µM
- TGI [41]: > 100 µM
- TGI [45]: > 100 µM
- TGI [56]: > 100 µM
- TGI [47]: > 100 µM
- TGI [48]: > 100 µM
- TGI [50]: > 100 µM
- TGI [51]: > 100 µM

SMILES: CC1(C)S[C@H](c2ccccc2C(=O)O)N[C@@H]1CC(=O)O
- TGI [1]: > 100 µM
- TGI [2]: > 100 µM
- TGI [52]: > 100 µM
- TGI [3]: > 100 µM
- TGI [5]: > 100 µM
- TGI [6]: > 100 µM
- TGI [7]: > 100 µM
- TGI [53]: > 100 µM
- TGI [8]: > 100 µM
- TGI [9]: > 100 µM
- TGI [11]: > 100 µM
- TGI [12]: > 100 µM
- TGI [13]: > 100 µM
- TGI [14]: > 100 µM
- TGI [15]: > 100 µM
- TGI [17]: > 100 µM
- TGI [18]: > 100 µM
- TGI [19]: > 100 µM
- TGI [20]: > 100 µM
- TGI [54]: > 100 µM
- TGI [22]: > 100 µM
- TGI [23]: > 100 µM
- TGI [24]: > 100 µM
- TGI [26]: > 100 µM
- TGI [27]: > 100 µM
- TGI [28]: > 100 µM
- TGI [29]: > 100 µM
- TGI [30]: > 100 µM
- TGI [32]: > 100 µM
- TGI [34]: > 100 µM
- TGI [35]: > 100 µM
- TGI [57]: > 100 µM
- TGI [36]: > 100 µM
- TGI [37]: > 100 µM
- TGI [38]: > 100 µM
- TGI [39]: > 100 µM
- TGI [40]: > 100 µM
- TGI [42]: > 100 µM
- TGI [43]: > 100 µM
- TGI [44]: > 100 µM
- TGI [45]: > 100 µM
- TGI [56]: > 100 µM
- TGI [46]: > 100 µM
- TGI [48]: > 100 µM
- TGI [49]: > 100 µM
- TGI [50]: > 100 µM

SMILES: Cn1cc/c(=N\N=c2/ccn(C)c3ccccc23)c2ccccc21
- TGI [1]: 30.1 µM
- TGI [2]: 37.2 µM
- TGI [52]: 30.6 µM
- TGI [3]: 27 µM
- TGI [4]: 33.2 µM
- TGI [5]: 24.5 µM
- TGI [6]: 22.1 µM
- TGI [7]: 29.4 µM
- TGI [53]: 27.7 µM
- TGI [8]: 30 µM
- TGI [9]: 27.8 µM
- TGI [10]: 29.2 µM
- TGI [11]: 23.4 µM
- TGI [12]: 29.2 µM
- TGI [13]: 21.6 µM
- TGI [15]: 31.6 µM
- TGI [17]: 31.7 µM
- TGI [19]: 22.2 µM
- TGI [20]: 25.6 µM
- TGI [21]: 28.2 µM
- TGI [54]: 24.2 µM
- TGI [22]: 27.2 µM
- TGI [23]: 30.8 µM
- TGI [24]: 34.2 µM
- TGI [25]: 31 µM
- TGI [26]: 63.9 µM
- TGI [27]: 25.8 µM
- TGI [28]: 27.4 µM
- TGI [29]: 25 µM
- TGI [30]: 27.8 µM
- TGI [31]: 24 µM
- TGI [32]: 25.5 µM
- TGI [33]: 30.3 µM
- TGI [34]: 28.5 µM
- TGI [57]: 27.5 µM
- TGI [36]: 39.2 µM
- TGI [37]: 30.9 µM
- TGI [38]: 29.4 µM
- TGI [39]: 28.5 µM
- TGI [40]: 29.4 µM
- TGI [41]: 31 µM
- TGI [42]: 33 µM
- TGI [43]: 36.3 µM
- TGI [44]: 61.8 µM
- TGI [45]: 33.3 µM
- TGI [56]: 47.3 µM
- TGI [47]: 36.4 µM
- TGI [48]: 29.1 µM
- TGI [49]: 27.3 µM
- TGI [50]: 29.8 µM
- TGI [51]: 26.3 µM
- TGI [58]: 27.1 µM

Reference: PubChem BioAssay (NCI)
